Measured values reported in patent publication US20190010167A1, “INHIBITORS OF THE MENIN-MLL INTERACTION” (Vitae Pharmaceuticals, Inc., priority 2015, published 2019).

Key:
[1] = biological target: T1, mutated menin / MLL-AF9 fusion protein (Homo sapiens, UniProt O00255); test: AlphaLISA menin/MLL binding assay, mutated menin (Assay 1); details: biotinylated mutated menin 5 nM, MLL-AF9-FLAG lysate, read-out: Assay 1 Mutant Menin IC50
T1 construct: biotinylated (1) wild-type menin or (2) mutated menin (described in Nature (2012) Vol. 482, pp. 542-548); fused on or other part: Biotin attached chemically with Sulfo-NHS-Biotin; This is a label, not a fusion
T1 sequence (O00255 1-610): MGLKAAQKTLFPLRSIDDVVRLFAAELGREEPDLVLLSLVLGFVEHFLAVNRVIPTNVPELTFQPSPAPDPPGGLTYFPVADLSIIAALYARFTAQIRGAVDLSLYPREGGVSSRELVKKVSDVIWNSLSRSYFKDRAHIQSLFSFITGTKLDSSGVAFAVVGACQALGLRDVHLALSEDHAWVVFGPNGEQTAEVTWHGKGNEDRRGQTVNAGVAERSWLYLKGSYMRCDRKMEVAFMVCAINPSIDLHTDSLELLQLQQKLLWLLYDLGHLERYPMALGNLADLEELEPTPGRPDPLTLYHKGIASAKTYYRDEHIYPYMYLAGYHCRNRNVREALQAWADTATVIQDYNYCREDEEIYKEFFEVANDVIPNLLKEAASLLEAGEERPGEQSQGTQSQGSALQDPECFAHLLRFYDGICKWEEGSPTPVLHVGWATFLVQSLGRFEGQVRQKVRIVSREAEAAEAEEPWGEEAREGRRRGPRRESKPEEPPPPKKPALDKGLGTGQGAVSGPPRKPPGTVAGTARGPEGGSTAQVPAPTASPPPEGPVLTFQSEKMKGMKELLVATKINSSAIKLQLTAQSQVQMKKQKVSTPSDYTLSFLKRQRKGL
Protocol: Potencies of inhibitor compounds against menin/MLL binding were assessed by AlphaLISA assay using biotinylated (1) wild-type menin or (2) mutated menin (described in Nature (2012) Vol. 482, pp. 542-548) and MLL-AF9 fusion protein bearing a FLAG epitope at its C-terminus. Menin proteins were expressed in E. coli and covalently modified with biotin using EZ-Link™ Sulfo-NHS-Biotin (ThermoFisher Cat. No. 21217) according to manufacturer's protocol. MLL1-1,396 fused to AF91-92 and the C-terminal FLAG peptide was expressed in HEK293 cells and used as a lysate cleared at 21,000×g for 10 min.
Compounds (2 μL of solutions in DMSO) were dispensed in white 96-well half-area plates (Corning Cat. No. 3693) and incubated for 30 min at RT with 5 nM biotinylated menin and appropriate amount of MLL-AF9-FLAG lysate in 40 μL of 50 mM Tris-HCl buffer pH 7.4 containing 5% (v/v) DMSO, 50 mM NaCl, 0.01% (w/v) bovine serum albumin (BSA) and 1 mM DTT. To this incubation mixture, 40 μl of AlphaLISA anti-FLAG acceptor (PerkinElmer Cat. No. AL112C) and streptavidin donor (PerkinElmer Cat. No. 6760002) beads (10 μg/mL each) was added and incubation continued at RT for 60 min. Alpha (amplified luminescent proximity homogeneous assay) signal was measured on an Envision multi-label plate reader at the end of the incubation. All steps were conducted under dim fluorescent light.
These percent inhibition values were regressed against compound concentrations in the assay using four parameter logit non-linear curve fitting (XLFit, IDBS). The IC50 values were derived from the curve fitting as inflection points on the dose-response curves and are set out in Table 1 below.

[2] = biological target: T2, menin/MLL (Gal4-Menin and MLL1-46-VP16) in HEK293 cells (Homo sapiens, UniProt O00255); test: Mammalian cellular two-hybrid assay in HEK293 cells (Assay 2, cell assay); assay type: cell-based; details: Gal4-Menin/MLL1-46-VP16 two-hybrid, NanoLuc luciferase reporter, 16-18 h
T2 construct: expressed in transfected cells; host or cells: HEK293 (ATCC)
Method in brief: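 HEK293 cells co-transfected with Gal4-Menin, MLL1-46-VP16 and a 4×UAS secreted NanoLuc reporter, then exposed to compound for 16-18 h at 37 °C in 10% delipidated FBS (0.1% DMSO). Inhibition from secreted NanoLuc relative to DMSO and 5 μM MI-2-2, with 4-parameter IC50 fit. CellTiter-Glo measured toxicity.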

T2 sequence (P04386 1-147 partner limits assumed, species assumed, one chain of several): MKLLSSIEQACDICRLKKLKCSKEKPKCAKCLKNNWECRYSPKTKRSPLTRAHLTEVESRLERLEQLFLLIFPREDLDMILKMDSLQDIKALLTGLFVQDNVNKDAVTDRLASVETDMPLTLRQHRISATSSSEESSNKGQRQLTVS

IC50 [1] [nM] | IC50 [2] [nM] | SMILES
100 to 1000 | – | CC1(C)CN=C(N2CC3(CCN(c4ncnc5sc(CC(F)(F)F)cc45)CC3)C2)S1 [Example 10, 4-(2-(5,5-dimethyl-4,5-dihydrothiazol-2-yl)-2,7-diazaspiro[3.5]nonan-7-yl)-6-(2,2,2-trifluoroethyl)thieno[2,3-d]pyrimidine]
100 to 1000 | ≥ 1000 | CC(C)N1CCC2(CCN(c3ncnc4sc(CC(F)(F)F)cc34)CC2)C1 [Example 25, 4-(2-isopropyl-2,8-diazaspiro[4.5]decan-8-yl)-6-(2,2,2-trifluoroethyl)thieno[2,3-d]pyrimidine]
100 to 1000 | – | CC1(C)CN=C(N2CCC3(CCN(c4ncnc5sc(CC(F)(F)F)cc45)CC3)C2)S1 [Example 27, 4-(2-(5,5-dimethyl-4,5-dihydrothiazol-2-yl)-2,8-diazaspiro[4.5]decan-8-yl)-6-(2,2,2-trifluoroethyl)thieno[2,3-d]pyrimidine]
≥ 1000 | – | CC1(C)CN=C(N2CC3(C2)CN(c2ncnc4ccc(OC(F)(F)F)cc24)C3)S1 [Example 88, 5,5-dimethyl-2-(6-(6-(trifluoromethoxy)quinazolin-4-yl)-2,6-diazaspiro[3.3]heptan-2-yl)-4,5-dihydrothiazole]
